Test [1] has as its target T1, Wee1A kinase (CDK1 Tyr15 phosphorylation in ACHN renal cell carcinoma cells) (Homo sapiens, UniProt P30291).
T1 construct: pCDK1 Tyr15 immunofluorescence read-out
The experiment in a line: High-content imaging of pCdk1 Y15, Wee1A kinase target engagement in ACHN cells. The format is cell-based. The gist of the method:
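ACHN cells exposed to compound for 4 h over 7–5,000 nM or 0.3–200 nM, then fixed and immunostained for pCDK1 Y15 with DAPI nuclear counterstain. The percentage of pCdk1 Y15 nucleus-positive cells relative to DMSO control was imaged per well; EC50 from dose-response curves.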

The target of test [2] is T2, recombinant human Wee1A kinase (Homo sapiens, UniProt P30291).
T2 construct: full length Wee1 kinase was expressed by baculovirus in insect cells; purchased Invitrogen PV3817; host or cells: insect cells (baculovirus)
T2 sequence (P30291 whole entry): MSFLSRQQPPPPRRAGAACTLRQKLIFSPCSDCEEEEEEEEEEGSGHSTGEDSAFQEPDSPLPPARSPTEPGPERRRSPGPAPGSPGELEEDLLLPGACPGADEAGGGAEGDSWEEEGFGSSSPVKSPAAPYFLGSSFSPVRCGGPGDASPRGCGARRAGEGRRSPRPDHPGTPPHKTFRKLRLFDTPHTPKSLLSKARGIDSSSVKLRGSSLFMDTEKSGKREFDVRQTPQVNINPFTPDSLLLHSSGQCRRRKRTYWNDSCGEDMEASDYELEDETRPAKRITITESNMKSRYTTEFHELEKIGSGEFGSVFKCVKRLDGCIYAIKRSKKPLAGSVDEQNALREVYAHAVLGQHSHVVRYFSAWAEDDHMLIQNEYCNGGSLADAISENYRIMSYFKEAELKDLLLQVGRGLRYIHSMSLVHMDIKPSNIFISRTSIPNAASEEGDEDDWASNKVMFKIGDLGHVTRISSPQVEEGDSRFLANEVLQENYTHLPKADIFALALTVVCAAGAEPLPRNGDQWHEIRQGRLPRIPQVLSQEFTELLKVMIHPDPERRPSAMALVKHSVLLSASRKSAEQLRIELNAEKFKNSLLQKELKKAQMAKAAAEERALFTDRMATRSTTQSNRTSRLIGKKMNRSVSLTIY
The experiment in a line: Wee1A kinase binding assay (LanthaScreen Eu time-resolved FRET). The gist of the method: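 Full-length, baculovirus-expressed GST-tagged Wee1A (5 nM) was mixed with 2 nM Eu-anti-GST antibody, 30 nM kinase tracer 178 and compound (1% DMSO). Buffer was 50 mM HEPES pH 7.5, 10 mM MgCl2, 1 mM EGTA, 0.01% Brij-35, incubated 60 min at room temperature. TR-FRET 665/615 nm emission ratios from duplicates were curve-fitted.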
A general note: In TR-FRET formats the signal depends on donor and acceptor labels being close together.

For test [3], the target named is T3, Myt1 kinase (recombinant PMYT-1) (Homo sapiens, UniProt Q99640).
T3 construct: full length PMYT-1 was expressed by baculovirus in insect cells; purchased Invitrogen A30984; host or cells: insect cells (baculovirus)
T3 sequence (Q99640 1-499): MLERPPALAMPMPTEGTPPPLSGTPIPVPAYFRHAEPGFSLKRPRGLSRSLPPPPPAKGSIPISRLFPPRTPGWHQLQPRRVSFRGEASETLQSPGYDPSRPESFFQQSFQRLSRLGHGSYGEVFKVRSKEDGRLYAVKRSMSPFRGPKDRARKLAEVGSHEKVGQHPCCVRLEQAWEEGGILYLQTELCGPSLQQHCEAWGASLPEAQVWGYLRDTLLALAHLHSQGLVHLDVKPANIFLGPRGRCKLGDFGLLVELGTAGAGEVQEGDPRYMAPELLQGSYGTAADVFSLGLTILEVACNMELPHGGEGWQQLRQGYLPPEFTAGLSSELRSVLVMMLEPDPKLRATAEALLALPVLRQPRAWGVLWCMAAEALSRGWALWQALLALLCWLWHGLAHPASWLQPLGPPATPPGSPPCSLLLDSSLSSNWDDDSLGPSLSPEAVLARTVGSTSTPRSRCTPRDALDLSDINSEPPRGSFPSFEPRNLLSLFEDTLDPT
The experiment in a line: Myt1 kinase binding assay (LanthaScreen Eu Kinase Binding Assay). The gist of the method: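 The binding affinity of compounds for Myt1 kinase was measured with a LanthaScreen Europium (Eu) Kinase Binding Assay, a time-resolved FRET format in which test compounds compete against a labeled kinase tracer, and the results were expressed as IC50 values describing compound binding to Myt1.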

For the next test, the system named is ACHN cells. The experiment in a line: Cell Titer Glo viability assay, ACHN cells. The format is cell-based. To be noted: 144 h, absolute EC50. The procedure:
Each of an ACHN renal cell carcinoma cell line (ATCC) and a DAOY medulloblastoma cell line, and an A427 lung cancer line were cultured in Minimum Essential Medium Eagle supplemented with 10% fetal calf serum (Sigma), 1% Penicillin-Streptomycin and 10 mM HEPES buffer (HyClone). Cell cultures were kept in a humidified incubator at 37 °C and 5% CO2. Cells were routinely tested for Mycoplasma contamination.
ACHN cells, DAOY cells, or A427 cells were seeded at a density of 400, 250, or 500 cells per well respectively, in tissue culture treated 384 well plates (Corning Costar). After overnight incubation, cells were treated with drugs at concentrations ranging from 17 to 10 000 nM. Viability compared to untreated control was assessed at 144 h using Cell Titer Glo assay 2.0 (Promega). […] “NT” means the compounds was not tested in the indicated cells.
For orientation: ATP-based viability assays read luminescence as a measure of living cells.

The mark [4] stands for this setting: 4 h treatment, nuclear positivity for pCdk1 Y15 vs DMSO control, read-out: CDK1 Tyr15 Phosphorylation EC50.
[5] abbreviates: 30 nM tracer 178, 5 nM Wee1A kinase, 2 nM Eu-labeled antibody, 60 minutes at room temperature, read-out: Wee1A kinase Binding IC50.
The mark [6] stands for this setting: 3 nM tracer 178, 2.5 nM PMYT-1, 1 nM Eu-labeled antibody, read-out: Myt1 kinase Binding IC50.
[7] abbreviates: read-out: CDK1 Tyr15 Phosphorylation EC50, 4 h treatment, nuclear positivity for pCdk1 Y15 vs DMSO control.

The structures appear in SMILES notation. Like-named read-outs stand apart in the source and are kept apart here.

The term EC50 denotes the midpoint of the concentration-response curve. As usually defined, the IC50 is the concentration that gives 50% inhibition.

T1 sequence (P30291 whole entry): as the sequence (P30291 whole entry) above

As for `C=CCn1c(=O)c2cnc(Nc3ccc4c(cnn4C)c3)nc2n1-c1cccc(O[C@@H]2CCCNC2)n1` [Compound 103, 6-[(1-Methyl-1H-indazol-5-yl)amino]-1-{6-[(3R)-piperidin-3-yloxy]pyridin-2-yl}-2-(prop-2-en-1-yl)-1H,2H,3H-pyrazolo[3,4-d]pyrimidin-3-one; bis(trifluoroacetic acid)], the EC50 in test [1] (setting [4]) is under 0.1 µM; in the test on ACHN cells (Homo sapiens), 0.1 to 0.5 µM. Further, the IC50 in test [2] (setting [5]) is under 0.01 µM; in test [3] (setting [6]) it was 0.1 to 0.5 µM.
Turning to `C=CCn1c(=O)c2cnc(Nc3ccc4c(cnn4C)c3)nc2n1-c1cccc(OC2CCN(C)CC2)c1` [Compound 220, 2-allyl-6-(1-methyl-1H-indazol-5-ylamino)-1-[m-(1-methyl-4-piperidyloxy)phenyl]-1,2-dihydro-3H-1,2,5,7-tetraazainden-3-one], the EC50 in test [1] (setting [4]) was under 0.1 µM; with ACHN cells (Homo sapiens), at most 0.1 µM. Also, the IC50 is under 0.01 µM in test [2] (setting [5]) and 0.1 to 0.5 µM in test [3] (setting [6]).
With `C=CCn1c(=O)c2cnc(Nc3cncc(C)c3)nc2n1-c1cccc(OC2CCN(C)CC2)n1` [Compound 292, 1-{6-[(1-methylpiperidin-4-yl)oxy]pyridin-2-yl}-6-[(5-methylpyridin-3-yl)amino]-2-(prop-2-en-1-yl)-1H,2H,3H-pyrazolo[3,4-d]pyrimidin-3-one], the EC50 in test [1] (setting [4]) is under 0.1 µM; with ACHN cells (Homo sapiens), at most 0.1 µM. The IC50 was under 0.01 µM in test [2] (setting [5]) and 0.02 to 0.1 µM in test [3] (setting [6]).
In the case of `C=CCn1c(=O)c2cnc(Nc3cccc(C)c3)nc2n1-c1cccc(NC2CCN(C)CC2)n1` [Compound 188, 2-allyl-1-[6-(1-methyl-4-piperidylamino)-2-pyridyl]-6-m-toluidino-1,2-dihydro-3H-1,2,5,7-tetraazainden-3-one], the values for the EC50 (in test [1] (setting [4]); in the test with ACHN cells (Homo sapiens)) were under 0.1 µM and at most 0.1 µM, respectively. The IC50 in test [2] (setting [5]) is under 0.01 µM; in test [3] (setting [6]), 0.1 to 0.5 µM.
On to `C=CCn1c(=O)c2cnc(Nc3ccc4nc(C)oc4c3)nc2n1-c1cccc(OC2CCNCC2)n1` [Compound 316, 2-allyl-6-(2-methyl-1,3-benzoxazol-6-ylamino)-1-[6-(4-piperidyloxy)-2-pyridyl]-1,2-dihydro-3H-1,2,5,7-tetraazainden-3-one], for which the EC50 is under 0.1 µM in test [1] (setting [4]) and 0.1 to 0.5 µM in the test on ACHN cells (Homo sapiens). Further, the IC50 in test [2] (setting [5]) is under 0.01 µM; in test [3] (setting [6]) it was 0.02 to 0.1 µM.
The corresponding values for `C=CCn1c(=O)c2cnc(Nc3ccc(F)c(C)c3)nc2n1-c1cccc(NC2CCN(C)CC2)n1` [Compound 140, 2-allyl-6-(4-fluoro-3-toluidino)-1-[6-(1-methyl-4-piperidylamino)-2-pyridyl]-1,2-dihydro-3H-1,2,5,7-tetraazainden-3-one] are under 0.1 µM, at most 0.1 µM, under 0.01 µM and 0.1 to 0.5 µM.
For `CCn1c(=O)c2cnc(Nc3ccc(C#N)cc3)nc2n1-c1cccc(OC2CCN(C)CC2)n1` [Compound 310, p-{2-ethyl-1-[6-(1-methyl-4-piperidyloxy)-2-pyridyl]-3-oxo-1,2-dihydro-3H-1,2,5,7-tetraazainden-6-ylamino}benzonitrile], the EC50 (in test [1] (setting [4]); in the test with ACHN cells (Homo sapiens)) was 0.1 to 0.5 µM throughout. For the same compound, the IC50 in test [2] (setting [5]) is under 0.01 µM; in test [3] (setting [6]), 0.02 to 0.1 µM.
On to `C=CCn1c(=O)c2cnc(Nc3ccc(OCC(F)(F)F)cc3)nc2n1-c1cccc(NC2CCN(C)CC2)n1` [Compound 139, 2-allyl-1-[6-(1-methyl-4-piperidylamino)-2-pyridyl]-6-[p-(2,2,2-trifluoroethoxy)phenylamino]-1,2-dihydro-3H-1,2,5,7-tetraazainden-3-one], for which the EC50 (in test [1] (setting [4]); in the test on ACHN cells (Homo sapiens)) was 0.1 to 0.5 µM in each case. Moreover, the IC50 in test [2] (setting [5]) was under 0.01 µM; in test [3] (setting [6]), 0.1 to 0.5 µM.
`C=CCn1c(=O)c2cnc(Nc3ccc4c(cnn4C)c3)nc2n1-c1cccc(N[C@@H]2CCN(CC)C2)n1` [Compound 119, 1-(6-{[(3R)-1-ethylpyrrolidin-3-yl]amino}pyridin-2-yl)-6-[(1-methyl-1H-indazol-5-yl)amino]-2-(prop-2-en-1-yl)-1H,2H,3H-pyrazolo[3,4-d]pyrimidin-3-one]: the EC50 is under 0.1 µM in test [1] (setting [4]) and at most 0.1 µM in the test with ACHN cells (Homo sapiens). Moreover, the IC50 in test [2] (setting [5]) is under 0.01 µM; in test [3] (setting [6]), 0.1 to 0.5 µM.
Regarding `C=CCn1c(=O)c2cnc(Nc3cnn(C)c3)nc2n1-c1cccc(O[C@H]2CN3CCC2CC3)n1` [Compound 172, 1-{6-[(3R)-1-azabicyclo[2.2.2]octan-3-yloxy]pyridin-2-yl}-6-[(1-methyl-1H-pyrazol-4-yl)amino]-2-(prop-2-en-1-yl)-1H,2H,3H-pyrazolo[3,4-d]pyrimidin-3-one], the EC50 (in test [1] (setting [7]); with ACHN cells (Homo sapiens)) was over 1 µM throughout. The IC50 is under 0.01 µM in test [2] and over 0.5 µM in test [3] (Myt1 kinase Binding IC50, 3 nM tracer 178, 2.5 nM PMYT-1, 1 nM Eu-labeled antibody).
As to `C=CCn1c(=O)c2cnc(Nc3ccc4c(cnn4C)c3)nc2n1-c1cccc(NC2CCN(C)CC2)c1` [Compound 226, 2-allyl-6-(1-methyl-1H-indazol-5-ylamino)-1-[m-(1-methyl-4-piperidylamino)phenyl]-1,2-dihydro-3H-1,2,5,7-tetraazainden-3-one], the EC50 is under 0.1 µM in test [1] (setting [4]) and 0.1 to 0.5 µM in the test on ACHN cells (Homo sapiens). The IC50 was under 0.01 µM in test [2] (setting [5]) and over 0.5 µM in test [3] (setting [6]).
Taken in the same sequence, the figures for `C=CCn1c(=O)c2cnc(Nc3ccnc(C)c3)nc2n1-c1cccc(OC2CCNCC2)n1` [Compound 113, 2-allyl-6-(2-methyl-4-pyridylamino)-1-[6-(4-piperidyloxy)-2-pyridyl]-1,2-dihydro-3H-1,2,5,7-tetraazainden-3-one] were 0.5 to 1 µM, over 1 µM, under 0.01 µM and 0.02 to 0.1 µM.
The corresponding values for `CCn1c(=O)c2cnc(Nc3cccc(C)c3)nc2n1-c1cccc(OC2CCNCC2)n1` [Compound 298, 2-ethyl-1-[6-(4-piperidyloxy)-2-pyridyl]-6-m-toluidino-1,2-dihydro-3H-1,2,5,7-tetraazainden-3-one] are 0.1 to 0.5 µM, 0.1 to 0.5 µM, under 0.01 µM and 0.1 to 0.5 µM.
Regarding `CCn1c(=O)c2cnc(Nc3ccc4c(cnn4C)c3)nc2n1-c1cccc(N(C)C2CCN(C)CC2)n1` [Compound 287, 1-{6-[N-methyl(1-methyl-4-piperidyl)amino]-2-pyridyl}-2-ethyl-6-(1-methyl-1H-indazol-5-ylamino)-1,2-dihydro-3H-1,2,5,7-tetraazainden-3-one], the EC50 in test [1] (setting [7]) is under 0.1 µM; in the test on ACHN cells (Homo sapiens), 0.1 to 0.5 µM. Moreover, in test [2], the IC50 is under 0.01 µM.
Turning to `C=CCn1c(=O)c2cnc(Nc3ccc4c(cnn4C)c3)nc2n1-c1cccc(O[C@@H]2CCCN(C)C2)n1` [Compound 331, 6-[(1-methyl-1H-indazol-5-yl)amino]-1-(6-{[(3R)-1-methylpiperidin-3-yl]oxy}pyridin-2-yl)-2-(prop-2-en-1-yl)-1H,2H,3H-pyrazolo[3,4-d]pyrimidin-3-one], the EC50 in test [1] (setting [4]) was under 0.1 µM; in the test on ACHN cells (Homo sapiens), 0.1 to 0.5 µM. Also, the concentration for half-maximal inhibition (IC50) in test [2] (setting [5]) is under 0.01 µM.
`C=CCn1c(=O)c2cnc(Nc3ccc4ccoc4c3)nc2n1-c1cccc(OC2CCN(C)CC2)n1` [Compound 195]: the results for the EC50 (in test [1] (setting [4]); in the test on ACHN cells) were under 0.1 µM and at most 0.1 µM, respectively. In addition, in test [3] (setting [6]), the IC50 is 0.1 to 0.5 µM.

The values above are taken from patent US20260364080A1, “PYRAZOLO-PYRIMIDINONE COMPOUNDS FOR USE IN METHODS OF INHIBITING WEE1 A KINASE” (Acrivon Therapeutics, Inc., priority 2023, published 2026).
